From patent US20110184188A1, “Insecticidal Benzenedicarboxamide Derivative” (priority 2008, published 2011)
Where two headings read alike, the source gives them in different places.

Key:
[1] = logP(neutral) by reverse phase chromatography, potassium dihydrogen phosphate / acetonitrile; assay type: physicochemical; conditions: potassium dihydrogen phosphate / acetonitrile
[2] = system: Myzus persicae resistant to organophosphorus pesticide and carbamate agent; assay: Test to Myzus persicae resistant to organophosphorus pesticide and carbamate agent (egg plant seedlings); assay type: in vivo; conditions: 168 h, effective ingredient concentration 100 ppm, seven days after spraying, read-out: pesticide effect, insect mortality
Experimental: Test to Myzus persicae resistant to organophosphorus pesticide and carbamate agent
(§1) Solvent: dimethylformamide 3 parts by weight Emulsifier: polyoxyethylene alkyl phenyl ether 1 part by weight
(§2) In order to prepare preparations of suitable active compounds, 1 part by weight of each of the active compounds was blended with the above amount of the solvent containing the above amount of the emulsifier, and the resulting mixture was diluted to a prescribed concentration with water.
On egg plant seedlings planted in a plastic pot of a diameter of 6 cm, 30 bred Myzus persicae resistant to organophosphorus pesticide and carbamate agent per one seedling were inoculated. After 1 day elapsed since the inoculation, a sufficient amount of the solution diluted with water and having a prescribed concentration of the active compound was sprayed. After the spraying, the pot was allowed to stand in a greenhouse of 28° C. After seven days elapsed since the spraying, insect mortality was calculated. The test was carried out twice.

Myzus persicae = assay: Test to Myzus persicae (Brassica pekinensis leaf disc spray); assay type: in vivo; conditions: foliar, read-out: pesticide effect, insect mortality
Experimental: Solvent: acetone 78.0 parts by weight and dimethylformamide 1.5 parts by weight Emulsifier: alkyl aryl polyglycol ether 0.5 parts by weight
as §2
On a leaf disc of Brassica pekinensis, Myzus persicae including all growth stage was inoculated. The solution diluted with water and having a prescribed concentration of the active compound was sprayed by a spray gun. Insect mortality was calculated after prescribed days elapsed. 100% insect mortality means that all the individuals died, and 0% insect mortality means that all the individuals were alive.

[3] = system: Spodoptera litura third instar larvae; assay: Test to larva of Spodoptera litura (sweet potato leaf dip); assay type: in vivo; conditions: foliar, 168 h, read-out: insect mortality
Experimental: Test to Larva of Spodoptera litura
as §1, §2
Leaves of sweet potato were immersed in the tested liquid medication of a prescribed concentration diluted with water. After air drying of the liquid medication, the leaves were put into a petri dish of a diameter of 9 cm, and 10 Spodoptera litura third instar larvae were released in the petri dish, and the petri dish was placed in a constant temperature room of 25° C. Two days later and four days later, leaves of sweet potato were added. Seven days later, the number of dead insects was examined, and insect mortality was calculated.
In the present test, results of 2 petri dishes for each compound were averaged.

Musca domestica = assay: Test to Musca domestica (adults, sugar sponge); assay type: in vivo; conditions: effective ingredient concentration 100 ppm, read-out: insecticide activity (mortality)
Experimental: (§3) Solvent: dimethylsulfoxide
(§4) In order to prepare preparations of suitable active compounds, 10 mg of each of the active compounds was dissolved into 0.5 ml of the above solvent, and the resulting mixture was diluted to a prescribed concentration with water.
As a preparative stage of the test, a fixed size of sponge was soaked in a mixture of sugar and the compound aqueous solution prepared in the above, and was placed in a test container. Ten adults of Musca domestica were put into the container, and the container was closed with a cap having ventilation holes. After a fixed time passed, a mortality rate of Musca domestica was acquired. 100% mortality means that all the individuals were dead, and 0% mortality means that all the individuals were alive.

Lucilia cuprina = assay: Test to Lucilia cuprina (larvae on horse minced meat); assay type: in vivo; conditions: effective ingredient concentration 100 ppm, read-out: insecticide activity (mortality)
Experimental: as §3, §4
About 20 to 30 larvae of Lucilia cuprina were put into the test tube in which 1 cm^3 of horse minced meat and 0.5 ml of the aqueous solution of the compound prepared in the above were put. After a fixed time passed, the mortality of the Lucilia cuprina was obtained. 100% mortality means that all the individuals were dead, and 0% mortality means that all the individuals were alive.

[4] = Spodoptera litura third instar larvae, active ingredient concentration 20 ppm, seven days later, 25° C.

Row | Compound | logP (neutral) [1] | mortality at 100 ppm [2] [%] | mortality at 20 ppm ([3]; Spodoptera litura) [%] | mortality at 20 ppm [3, 4] [%] | also measured
1 | Cc1cc(Cn2nc(C(F)(F)C(F)(F)F)nc2C(F)(F)F)ccc1NC(=O)c1c(Cl)ccc(Cl)c1C(=O)N[C@@H](C)C[S+](C)[O-] (some centres unmarked) [11-28] | logP (neutral) 2.90 |  |  |  | 
2 | CSC[C@H](C)NC(=O)c1c(OC(F)(F)F)cccc1C(=O)Nc1ccc(Cn2nc(C(F)(F)F)cc2C(F)(F)F)cc1C [13-13, N^1-(4-{[3,5-bis(trifluoromethyl)-1H-pyrazol-1-yl]methyl}-2-methylphenyl)-N^2-[(1S)-1-methyl-2-(methylthio)ethyl]-3-(trifluoromethoxy)-1,2-benzenedicarboxamide] |  | 100 | 100 |  | mortality at 100 g/ha (Myzus persicae): ≥ 70%
3 | CSC[C@H](C)NC(=O)c1c(Br)cccc1C(=O)Nc1ccc(Cn2nc(C(F)(F)C(F)(F)C(F)(F)F)cc2C(F)(F)F)nc1C [13-128] | 4.42 |  |  |  | 
4 | CSC[C@H](C)NC(=O)c1c(Br)cccc1C(=O)Nc1ccc(Cn2cc(C(F)(F)C(F)(F)F)c(C(F)(F)C(F)(F)F)n2)cc1C [13-132, N^1-(4-{[3,4-bis(pentafluoroethyl)-1H-pyrazol-1-yl]methyl}-2-methylphenyl)-3-bromo-N^2-[(1S)-1-methyl-2-(methylthio)ethyl]-1,2-benzenedicarboxamide] |  |  |  | 100 | mortality at 100 ppm (Musca domestica): ≥ 70%; mortality at 100 ppm (Lucilia cuprina): ≥ 80%
5 | Cc1cc(Cn2cc(C(F)(F)C(F)(F)F)c(C(F)(F)C(F)(F)F)n2)ccc1NC(=O)c1cccc(Br)c1C(=O)N[C@@H](C)C[S+](C)[O-] (stereo partly drawn) [13-137, N^1-(4-{[3,4-bis(pentafluoroethyl)-1H-pyrazol-1-yl]methyl}-2-methylphenyl)-3-bromo-N^2-[(1S)-1-methyl-2-(methylsulfinyl)ethyl]-1,2-benzenedicarboxamide] |  |  |  | 100 | mortality at 100 ppm (Musca domestica): ≥ 70%; mortality at 100 ppm (Lucilia cuprina): ≥ 80%
6 | CSC[C@H](C)NC(=O)c1c(C#N)cccc1C(=O)Nc1ccc(Cn2nc(C(F)(F)F)cc2C(F)(F)F)cc1C [13-172, N^1-(4-{[3,5-bis(trifluoromethyl)-1H-pyrazol-1-yl]methyl}-2-methylphenyl)-3-cyano-N^2-[(1S)-1-methyl-2-(methylthio)ethyl]-1,2-benzenedicarboxamide] |  | 100 | 100 |  | mortality at 100 g/ha (Myzus persicae): ≥ 70%
7 | CSC[C@H](C)NC(=O)c1c(C(=O)Nc2ccc(Cn3nc(C(F)(F)F)cc3C(F)(F)F)nc2C)cccc1S(=O)(=O)N(C)C [13-287] | 3.42 |  |  |  | 
8 | CCSC[C@H](C)NC(=O)c1c(SC)cccc1C(=O)Nc1ccc(Cn2nc(C(F)(F)F)cc2C(F)(F)F)cc1C [13-291, N^1-(4-{[3,5-bis(trifluoromethyl)-1H-pyrazol-1-yl]methyl}-2-methylphenyl)-N^2-[(1S)-1-methyl-2-(ethylthio)ethyl]-3-methylthio-1,2-benzenedicarboxamide] |  |  |  | 100 | mortality at 100 g/ha (Myzus persicae; spraying amount 100 g/ha): ≥ 70%
9 | CSC[C@H](C)NC(=O)c1c(Cl)cccc1C(=O)Nc1ccc(Cn2nc(C(F)(F)F)n(C)c2=O)nc1C [14-320] | 2.16 |  |  |  | 
10 | CSC[C@H](C)NC(=O)c1c(Cl)cccc1C(=O)Nc1ccc(CN2N=C(C(F)(F)C(F)(F)F)NC2C(F)(F)F)cc1C (stereo partly drawn) [16-4, 3-chloro-N^1-(2-methyl-4-{[3-(pentafluoroethyl)-5-(trifluoromethyl)-4,5-dihydro-1H-1,2,4-triazol-1-yl]methyl}phenyl)-N^2-[(1S)-1-methyl-2-(methylthio)ethyl]-1,2-benzenedicarboxamide] |  | 100 | 100 |  | 
